Measured values published in the supplement of paper PMC13380429.

Columns and labels:
[1] = system: A549-ACE2 infected with SARS-CoV-2; assay: cell count relative to DMSO; higher = less toxic; conditions: 24 h
Caco-2 [2] = assay: cell viability relative to DMSO; higher = less toxic; conditions: 72 h
Calu-3 [3] = assay: as above; conditions: 72 h
HepG2 [4] = assay: as above; conditions: 72 h
U2OS [5] = assay: as above; conditions: 72 h
Vero E6 [6] = assay: as above; conditions: 72 h
[7] = system: A549-ACE2 infected with SARS-CoV-2; assay: SARS-CoV-2 infection rate relative to DMSO; higher = more infection; conditions: 24 h
A549-ACE2 [8] = assay: phospholipidosis EC50; higher = less potent phospholipidosis inducer
A549-ACE2 [9] = assay: drug-induced phospholipidosis relative to tamoxifen; higher = more phospholipidosis
[10] = system: A549-ACE2 infected with SARS-CoV-2; assay: morphology score (similarity to uninfected cells); higher = more like uninfected cells; conditions: 24 h
Caco-2 [11] = assay: relative viability EC50 (midpoint between 100% and the lowest measured viability); higher = less toxic; conditions: 72 h
Calu-3 [12] = assay: as above; conditions: 72 h
U2OS [13] = assay: as above; conditions: 72 h
Vero E6 [14] = assay: as above; conditions: 72 h
Caco-2 [15] = assay: drug sensitivity score (DSS) for viability; higher = more toxic; extreme values may be limits of the assay; conditions: 72 h
Calu-3 [16] = assay: as above; conditions: 72 h
HepG2 [17] = assay: as above; conditions: 72 h
U2OS [18] = assay: as above; conditions: 72 h
Vero E6 [19] = assay: as above; conditions: 72 h
HepG2 [20] = assay: relative viability EC50 (midpoint between 100% and the lowest measured viability); higher = less toxic; conditions: 72 h

c1ccc(-c2nn3c(c2-c2ccnc4cc(OCCN5CCOCC5)ccc24)CCC3)nc1
Conditions	SARS-CoV-2 infection rate [%]	cell count [%]	cell viability [%]	morphology score	phospholipidosis EC50 [µM]
A549-ACE2 [8], 24 h	–	–	–	–	15.2
A549-ACE2 [8], 72 h	–	–	–	–	12.7
Caco-2 [2], 1 nM	–	–	94.1	–	–
Caco-2 [2], 10 nM	–	–	106	–	–
Caco-2 [2], 100 nM	–	–	95.8	–	–
Caco-2 [2], 1000 nM	–	–	100	–	–
Caco-2 [2], 10000 nM	–	–	94.6	–	–
Calu-3 [3], 1 nM	–	–	102	–	–
Calu-3 [3], 10 nM	–	–	86.3	–	–
Calu-3 [3], 100 nM	–	–	104	–	–
Calu-3 [3], 1000 nM	–	–	96	–	–
Calu-3 [3], 10000 nM	–	–	101	–	–
HepG2 [4], 1 nM	–	–	103	–	–
HepG2 [4], 10 nM	–	–	100	–	–
HepG2 [4], 100 nM	–	–	96.6	–	–
HepG2 [4], 1000 nM	–	–	95.7	–	–
HepG2 [4], 10000 nM	–	–	74.7	–	–
U2OS [5], 1 nM	–	–	95.4	–	–
U2OS [5], 10 nM	–	–	105	–	–
U2OS [5], 100 nM	–	–	91.6	–	–
U2OS [5], 1000 nM	–	–	90.4	–	–
U2OS [5], 10000 nM	–	–	76.5	–	–
Vero E6 [6], 1 nM	–	–	102	–	–
Vero E6 [6], 10 nM	–	–	99.8	–	–
Vero E6 [6], 100 nM	–	–	111	–	–
Vero E6 [6], 1000 nM	–	–	108	–	–
Vero E6 [6], 10000 nM	–	–	105	–	–
[1], 0.3 µM	–	108	–	–	–
[1], 3 µM	–	104	–	–	–
[1], 10 µM	–	96	–	–	–
[1], 30 µM	–	95	–	–	–
[7], 0.3 µM	82	–	–	–	–
[7], 3 µM	97	–	–	–	–
[7], 10 µM	108	–	–	–	–
[7], 30 µM	106	–	–	–	–
[10], 0.3 µM	–	–	–	0.43	–
[10], 3 µM	–	–	–	0.25	–
[10], 10 µM	–	–	–	0.09	–
[10], 30 µM	–	–	–	-0.11	–

drug-induced phospholipidosis [%], A549-ACE2 [9]
Conditions	0.3 µM	0.833333 µM	3.33333 µM	6.66667 µM	10 µM	30 µM
24 h	7.41	15.4	31.7	44.4	57.5	78.6
48 h	5.26	4.41	16.2	19.5	30.1	52.8
72 h	2.76	-1.59	7.52	15.3	29.5	58.6

Conditions	drug sensitivity score	relative viability EC50 [µM]
Caco-2 [11]	–	> 10
Caco-2 [15]	0	–
Calu-3 [12]	–	> 10
Calu-3 [16]	0	–
HepG2 [17]	1.6	–
U2OS [13]	–	> 10
U2OS [18]	1.5	–
Vero E6 [14]	–	> 10
Vero E6 [19]	0	–

CCN(CC)CCOc1ccc(/C(=C(\Cl)c2ccccc2)c2ccccc2)cc1 [clomifene]
Conditions	SARS-CoV-2 infection rate [%]	cell count [%]	cell viability [%]	morphology score	phospholipidosis EC50 [µM]
A549-ACE2 [8], 24 h	–	–	–	–	0.972
A549-ACE2 [8], 48 h	–	–	–	–	3
A549-ACE2 [8], 72 h	–	–	–	–	4.75
Caco-2 [2], 1 nM	–	–	84.4	–	–
Caco-2 [2], 10 nM	–	–	100	–	–
Caco-2 [2], 100 nM	–	–	99.1	–	–
Caco-2 [2], 1000 nM	–	–	96.4	–	–
Caco-2 [2], 10000 nM	–	–	61.1	–	–
Calu-3 [3], 1 nM	–	–	100	–	–
Calu-3 [3], 10 nM	–	–	101	–	–
Calu-3 [3], 100 nM	–	–	102	–	–
Calu-3 [3], 1000 nM	–	–	90.4	–	–
Calu-3 [3], 10000 nM	–	–	10.8	–	–
HepG2 [4], 1 nM	–	–	90.5	–	–
HepG2 [4], 10 nM	–	–	89.9	–	–
HepG2 [4], 100 nM	–	–	105	–	–
HepG2 [4], 1000 nM	–	–	96	–	–
HepG2 [4], 10000 nM	–	–	26.5	–	–
U2OS [5], 1 nM	–	–	96.1	–	–
U2OS [5], 10 nM	–	–	99.4	–	–
U2OS [5], 100 nM	–	–	96.3	–	–
U2OS [5], 1000 nM	–	–	103	–	–
U2OS [5], 10000 nM	–	–	79.3	–	–
Vero E6 [6], 1 nM	–	–	94.7	–	–
Vero E6 [6], 10 nM	–	–	95.5	–	–
Vero E6 [6], 100 nM	–	–	91.9	–	–
Vero E6 [6], 1000 nM	–	–	101	–	–
Vero E6 [6], 10000 nM	–	–	77.4	–	–
[1], 0.1 µM	–	101	–	–	–
[1], 0.3 µM	–	106	–	–	–
[1], 1 µM	–	113	–	–	–
[1], 3 µM	–	117	–	–	–
[7], 0.1 µM	102	–	–	–	–
[7], 0.3 µM	84	–	–	–	–
[7], 1 µM	75	–	–	–	–
[7], 3 µM	31	–	–	–	–
[10], 0.1 µM	–	–	–	-0.09	–
[10], 0.3 µM	–	–	–	0.35	–
[10], 1 µM	–	–	–	0.5	–
[10], 3 µM	–	–	–	0.8	–

drug-induced phospholipidosis [%], A549-ACE2 [9]
Conditions	0.3 µM	0.833333 µM	3.33333 µM	6.66667 µM	10 µM	30 µM
24 h	9.43	34.4	86	104	115	47.6
48 h	7.92	29.7	72.8	101	120	–
72 h	9.07	23.5	62.7	94.3	144	–

Conditions	drug sensitivity score	relative viability EC50 [µM]
Caco-2 [15]	2.5	–
Calu-3 [12]	–	2.27
Calu-3 [16]	6.5	–
HepG2 [17]	4.6	–
HepG2 [20]	–	2.75
U2OS [13]	–	> 10
U2OS [18]	0.5	–
Vero E6 [14]	–	> 10
Vero E6 [19]	0.7	–
